# Experimental data taken from US20030154517A1, “Efficiency agrobacterium-mediated wheat transformation method” (priority 2001, published 2003).
# Several values for one entry are separate records, joined by “and”; a condition that tells them apart may be missing. Identical values can stand only once. Like-named read-outs stand apart in the source and are kept apart here.
# How the values were obtained:
# [1] = system: immature embryos of wheat; assay: Agrobacterium-mediated wheat transformation, nptII (G418/kanamycin) selection (transformation efficiency); type: cell-based, Triticum aestivum L
# Excerpt: Immature embryos of wheat (Triticum aestivum L) cv Bobwhite were isolated from the immature caryopsis (wheat spikelets) 12-15 days after pollination, and cultured on CM4C (Table 2) for 1-8 days, most typically for 4-6. The embryos without embryogenic callus were selected for Agrobacterium inoculation.
# A disarmed Agrobacterium strain C58 (ABI) harboring a binary vector was used for all the experiments. […] The Agrobacterium cells were resuspended in the inoculation medium and the density was adjusted to an OD660 of 1. […] An equal amount of the Agrobacterium cell suspension was added such that the final concentration of Agrobacterium cells was an OD660 of 0.5. In most experiments, pluronic F68 was added to the inoculation mixture at a final concentration of 0.01%. The ratio between the Agrobacterium and immature embryos (IEs) was about 10 mL: 20-200 IEs. The conditions for inoculation were temperatures from about 23° C.-26° C. with a duration from about 5-60 minutes.
# After the inoculation period, the remaining Agrobacterium cells were removed from the explants by using the in-house vacuum equipment. A piece of sterile Whatman No. 1 filter paper (to fit the size of the petri plate) was placed in each of 60×15 or 60×20 mm petri dishes without additional liquid or agar-supplemented media. Two hundred microliters of sterile water was placed in the middle of the filter paper. After 2-3 minutes, the inoculated immature embryos were placed in the plates. Usually, 20-50 explants are grouped as one stack (about 1 cm in size and 60-80 mg/stack), with 4-5 stacks on each plate. The plates were immediately parafilmed and then co-cultivated in the dark at 24° C.-26° C. for 2-3 days.
# For nptII selection, immature embryos were isolated, precultured, inoculated, and co-cultured as previously described. After the 3-day co-culture, embryos were transferred to delay culture (solid CM4C2D) media (CM4C media as in Table 2 with 2 mg/L 2,4-D) with 500 mg/L carbenicillin for 7 days in the dark at 25° C. Selection was done in liquid CM4C media (as in Table 2 without the Phytagel) with 100 mg/L carbenicillin and 20 mg/L G418 on a support for 7 days in the dark followed by 7 days in the light (16 hr photoperiod), at 25° C. The calli were then transferred to liquid MMS0.2C media (as in Table 2 without the gelling agent) with 100 mg/L carbenicillin and 25 mg/L G418 on a support for 2 weeks at 25° C. with a 16 hr photoperiod. After 2 weeks, the calli were transferred to liquid MMSOC media (as in Table 2 without the gelling agent) with 100 mg/L carbenicillin and 25 mg/L G418 on a support for 2 to 4 weeks at 25° C. with a 16 hr photoperiod. Plantlets were transferred to solid MMSOC media with 100 mg/L carbenicillin and 25 mg/L G418 in sundae cups for 1 to 4 weeks at 25° C. with a 16 hr photoperiod.
# wheat callus cultures = conditions: for 1 shoot/callus / 2 shoots/callus / 3 shoots/callus / 4 shoots/callus / Regenerable callus, # / Regenerable callus, % / Shoots, #: no glyphosate; for Shoots, #: two experiments
# Method: Five treatments were done: 1) control (0.1 μM Cu as in MS medium) without additional copper; 2) 2 μM copper, applied at delay and selection for 2 weeks total; 3) 2 μM Cu at 1st regeneration for 2 weeks; 4) 2 μM Cu at 2nd regeneration for 2 or more weeks; and 5) 2 μM Cu constantly present at all of these stages.
# [2] = system: immature embryos of wheat (Triticum aestivum L) cv Bobwhite; assay: Agrobacterium-mediated wheat transformation, glyphosate selection (transformation efficiency); type: cell-based; conditions: for Over all % TE / Total Ind. Events: six experiments; for Transgenic #: Expt. 309 and Expt. 314
# [3] = 2 μM Cu at 2nd Reg. (MMS0C), 2 w.
# [4] = Table 16: 250 μM CuSO4 in MMS0C
# [5] = Table 16: 500 μM CuSO4 in MMS0C
# [6] = Table 16: 750 μM CuSO4 in MMS0C
# [7] = Table 16: 1000 μM CuSO4 in MMS0C
# [8] = Table 16: 1500 μM CuSO4 in MMS0C
# [9] = Table 16: 2000 μM CuSO4 in MMS0C
# [10] = Table 16: 3000 μM CuSO4 in MMS0C
smiles,measurement,setting,value
"O=S(=O)([O-])[O-].[Cu+2] [CuSO4, copper sulfate]",Independent transgenic events/explants,[1],37/220 and 63/228 and 48/211 and 46/275 and 53/225
same,% TE,"[1]; 2 μM copper sulfate in MMSOC, nptII liquid system, per experiment and Totals, listed as Copper sulfate",3.72% and 2.16% and 0.57% and 9.43% and 9.14% and 4.51% and 1.56%
same,% TE,"[1]; 2 μM copper sulfate in MMSOC, nptII liquid system, per experiment and Totals, listed as copper",4.5%
same,% TE,"[1]; 20 μM copper sulfate in MMSOC, nptII liquid system, per experiment and Totals",7.2%
same,% TE,[1]; Table 19: compound at 2 μM in second regeneration stage (MMSOC media),16.8%
same,% TE,[1]; Table 19: compound at 20 μM in second regeneration stage (MMSOC media),27.6% and 30.6% and 22.7% and 16.7% and 23.6%
same,% TE,"[1]; Table 19: compound at 20 μM in second regeneration stage (MMSOC media), listed as copper sulfate",27.6% and 16.7% and 22.7%
same,1 shoot/callus,"wheat callus cultures; 2 μM Cu at 1st Reg., 2 w.",11.8
same,2 shoots/callus,"wheat callus cultures; 2 μM Cu at 1st Reg., 2 w.",9.3
same,3 shoots/callus,"wheat callus cultures; 2 μM Cu at 1st Reg., 2 w.",3.3
same,4 shoots/callus,"wheat callus cultures; 2 μM Cu at 1st Reg., 2 w.",1.3
same,"Regenerable callus, #","wheat callus cultures; 2 μM Cu at 1st Reg., 2 w.",30.5
same,"Regenerable callus, %","wheat callus cultures; 2 μM Cu at 1st Reg., 2 w.",61%
same,"Shoots, #","wheat callus cultures; 2 μM Cu at 1st Reg., 2 w.",44
same,effect on regeneration,wheat callus cultures; 2 μM Cu at 1st regeneration stage,very little or no effect
same,"Regenerable callus, #",wheat callus cultures; [3],40
same,"Regenerable callus, %",wheat callus cultures; [3],80%
same,"Shoots, #",wheat callus cultures; [3],80.5
same,2 shoots/callus,"wheat callus cultures; 2 μM Cu at 2nd Reg., 2 w.",12.5
same,3 shoots/callus,"wheat callus cultures; 2 μM Cu at 2nd Reg., 2 w.",9.8
same,4 shoots/callus,"wheat callus cultures; 2 μM Cu at 2nd Reg., 2 w.",4.3
same,effect on regeneration,wheat callus cultures; 2 μM Cu at 2nd regeneration stage,most significant increase in regeneration
same,1 shoot/callus,"wheat callus cultures; 2 μM Cu at Delay/Sel., 2 w.",14.3
same,2 shoots/callus,"wheat callus cultures; 2 μM Cu at Delay/Sel., 2 w.",8.5
same,3 shoots/callus,"wheat callus cultures; 2 μM Cu at Delay/Sel., 2 w.",7.8
same,4 shoots/callus,"wheat callus cultures; 2 μM Cu at Delay/Sel., 2 w.",0.5
same,"Regenerable callus, #","wheat callus cultures; 2 μM Cu at Delay/Sel., 2 w.",35.6
same,"Regenerable callus, %","wheat callus cultures; 2 μM Cu at Delay/Sel., 2 w.",71%
same,"Shoots, #","wheat callus cultures; 2 μM Cu at Delay/Sel., 2 w.",57.5
same,1 shoot/callus,"wheat callus cultures; 2 μM Cu at all stages, 6 w.",9
same,2 shoots/callus,"wheat callus cultures; 2 μM Cu at all stages, 6 w.",11.5
same,3 shoots/callus,"wheat callus cultures; 2 μM Cu at all stages, 6 w.",2.5
same,4 shoots/callus,"wheat callus cultures; 2 μM Cu at all stages, 6 w.",0.5
same,"Regenerable callus, #","wheat callus cultures; 2 μM Cu at all stages, 6 w.",30.5
same,"Regenerable callus, %","wheat callus cultures; 2 μM Cu at all stages, 6 w.",61%
same,"Shoots, #","wheat callus cultures; 2 μM Cu at all stages, 6 w.",37
same,effect on regeneration,wheat callus cultures; 2 μM Cu at delay and selection stage,Some improvement
same,effect on regeneration,wheat callus cultures; 2 μM Cu present at all stages,No improvement
same,improvement in TE (×),"[2]; 1.0 μM copper sulfate in MMS0C, experiment 309",2.5 ×
same,improvement in TE (×),"[2]; 1.0 μM copper sulfate in MMS0C, experiment 314",~4 ×
same,improvement in TE (×),"[2]; 2.0 μM copper sulfate in MMS0C, experiment 309",3.5 ×
same,improvement in TE (×),"[2]; 2.0 μM copper sulfate in MMS0C, experiment 314",~10 ×
same,TE %,"[2]; CuSO4 2 μM, initial 14 days (2 weeks) of last regeneration stage (MMS0C), per experiment and Total/average of twelve, listed as Cu",16.6%
same,% TE,"[2]; Table 14: 2 μM Cu in MMS0C, per experiment and Total, listed as Cu",11.4% and 15.1% and 9.4%
same,% TE,"[2]; Table 14: 20 μM Cu in MMS0C, per experiment and Total, listed as Cu",17.4% and 20.3% and 15.9%
same,Over all % TE,[2]; Table 15: 20 μM CuSO4 in MMS0C,17.6%
same,Total Ind. Events,[2]; Table 15: 20 μM CuSO4 in MMS0C,103
same,% TE,"[2]; Table 15: 40 μM CuSO4 in MMS0C, experiments 292, 293, 295, 296, 297, 301",14.0% and 13.9% and 22.6% and 21.8% and 20.7% and 19.6%
same,Over all % TE,[2]; Table 15: 40 μM CuSO4 in MMS0C,18.6%
same,Total Ind. Events,[2]; Table 15: 40 μM CuSO4 in MMS0C,109
same,Over all % TE,[2]; Table 15: 80 μM CuSO4 in MMS0C,16.6%
same,Total Ind. Events,[2]; Table 15: 80 μM CuSO4 in MMS0C,98
same,% TE,[2]; Table 16: 40 μM CuSO4 in MMS0C,17.5%
same,Transgenics,[2]; Table 16: 40 μM CuSO4 in MMS0C,14
same,% TE,[2]; [4],20%
same,Transgenics,[2]; [4],16
same,% TE,[2]; [5],24% and 23.75%
same,Transgenics,[2]; [5],19
same,% TE,[2]; [6],15.0%
same,Transgenics,[2]; [6],12
same,% TE,[2]; [7],10.0%
same,Transgenics,[2]; [7],8
same,% TE,[2]; [8],13.8%
same,Transgenics,[2]; [8],11
same,% TE,[2]; [9],11.1%
same,Transgenics,[2]; [9],4
same,% TE,[2]; [10],5.6%
same,Transgenics,[2]; [10],2
same,% TE,"[2]; Table 17: 0.25 μM CuSO4 in MMS0C, both experiments",4.8%
same,Transgenic #,[2]; Table 17: 0.5 μM CuSO4 in MMS0C,4 and 5
same,% TE,"[2]; Table 17: 0.5 μM CuSO4 in MMS0C, both experiments",4.3%
same,Transgenic #,[2]; Table 17: 1.0 μM CuSO4 in MMS0C,10 and 11
same,% TE,"[2]; Table 17: 1.0 μM CuSO4 in MMS0C, both experiments",10.1%
same,% TE,"[2]; Table 17: 2.0 μM CuSO4 in MMS0C, both experiments",20.7%
same,"TE, average","[2]; copper sulfate from 20 to 80 μM inclusive in MMS0C, Table 15",17.6%
